In US10039747B2, “Tetrahydrocyclopentapyrrole derivatives and a method for preparing the same” (Daewoong Pharmaceutical Co., Ltd., priority 2013, dated 2018) one finds IC50 data, which are given here for 33 molecules.

Structures are written as SMILES.

In this assay the target is T1, H+/K+-ATPase (Sus scrofa, UniProt P19156).
T1 construct: reaction buffer solution (60 mmol/l Tris-HCl buffer solution, pH 7.4) containing hog gastric vesicle; from tissue; host or cells: hog stomach (gastric vesicles, by centrifugation after Rabon et al. 1988)
T1 sequence (P19156 2-1034 limits assumed): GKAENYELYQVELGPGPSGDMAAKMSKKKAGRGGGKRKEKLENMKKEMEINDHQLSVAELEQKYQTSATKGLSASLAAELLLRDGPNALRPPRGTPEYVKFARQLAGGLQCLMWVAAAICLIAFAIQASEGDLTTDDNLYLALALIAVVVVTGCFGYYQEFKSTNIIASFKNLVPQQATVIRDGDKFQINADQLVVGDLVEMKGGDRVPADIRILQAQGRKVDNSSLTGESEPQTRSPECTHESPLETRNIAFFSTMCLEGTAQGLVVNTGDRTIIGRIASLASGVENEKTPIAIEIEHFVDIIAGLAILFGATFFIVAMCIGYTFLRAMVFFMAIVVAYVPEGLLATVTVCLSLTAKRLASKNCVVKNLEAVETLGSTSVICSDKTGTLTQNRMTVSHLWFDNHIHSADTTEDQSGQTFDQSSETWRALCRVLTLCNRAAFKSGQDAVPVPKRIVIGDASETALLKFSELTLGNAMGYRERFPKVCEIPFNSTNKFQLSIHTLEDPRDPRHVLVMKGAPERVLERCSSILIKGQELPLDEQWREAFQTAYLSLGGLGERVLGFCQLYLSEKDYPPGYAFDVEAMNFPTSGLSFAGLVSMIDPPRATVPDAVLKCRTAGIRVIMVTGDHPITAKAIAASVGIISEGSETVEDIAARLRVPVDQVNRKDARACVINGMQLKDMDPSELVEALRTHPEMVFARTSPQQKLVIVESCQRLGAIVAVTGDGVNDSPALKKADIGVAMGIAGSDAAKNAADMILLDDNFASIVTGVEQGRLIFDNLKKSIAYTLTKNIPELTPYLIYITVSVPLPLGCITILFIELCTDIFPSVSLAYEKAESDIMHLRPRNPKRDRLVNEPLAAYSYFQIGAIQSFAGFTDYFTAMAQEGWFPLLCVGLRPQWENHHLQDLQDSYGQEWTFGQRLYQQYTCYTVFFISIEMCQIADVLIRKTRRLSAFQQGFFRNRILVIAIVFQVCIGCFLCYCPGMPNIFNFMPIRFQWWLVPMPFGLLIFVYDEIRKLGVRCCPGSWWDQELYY
T1 sequence (P18434 whole entry partner): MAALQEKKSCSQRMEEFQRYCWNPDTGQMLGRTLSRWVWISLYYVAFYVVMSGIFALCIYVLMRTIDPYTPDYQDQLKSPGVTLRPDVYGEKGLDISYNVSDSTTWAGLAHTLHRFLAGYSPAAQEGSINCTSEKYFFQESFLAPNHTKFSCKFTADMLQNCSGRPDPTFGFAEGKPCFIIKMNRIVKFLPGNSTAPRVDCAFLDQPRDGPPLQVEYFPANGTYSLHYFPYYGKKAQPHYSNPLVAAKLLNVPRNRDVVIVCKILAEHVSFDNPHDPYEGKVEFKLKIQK
Briefly: Inhibition of proton pump (H+/K+-ATPase) activity in hog gastric vesicles. It counts as biochemical. Particulars: K+ specific H+/K+-ATPase activity, pH 7.4, 37° C. for 40 minutes, malachite green. Summed up: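 Hog gastric vesicles in 60 mmol/l Tris-HCl pH 7.4 with compound, started with ATP, 40 min at 37° C. Pi read by malachite green at 570 nm; K+-specific activity taken as difference between +K+ and −K+ activity. IC50 from % inhibition by 4-parameter logistic fit.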
In the case of `CNC1CCc2c1cn(S(=O)(=O)c1ccc(Cl)c(Cl)c1)c2-c1ccccc1F` (stereo not drawn) [Example 76, 2-((3,4-dichlorophenyl)sulfonyl)-1-(2-fluorophenyl)-N-methyl-2,4,5,6-tetrahydrocyclopenta[c]pyrrol-4-amine], the IC50 (in general, the concentration that inhibits the measured activity by half) stood at 490 nM. In other words, the sub-micromolar range.

For `CNC1CCc2c1cn(S(=O)(=O)c1cc(Cl)cc(Cl)c1)c2-c1ccccc1F` (stereo not drawn) [Example 77, 2-((3,5-dichlorophenyl)sulfonyl)-1-(2-fluorophenyl)-N-methyl-2,4,5,6-tetrahydrocyclopenta[c]pyrrol-4-amine], half-maximal inhibition (IC50) required 410 nM. The molecule `CNC1CCc2c1cn(S(=O)(=O)c1cc(Cl)cc(Cl)c1)c2-c1ccc(C)cc1F` (stereo not drawn) [Example 78, 2-((3,5-dichlorophenyl)sulfonyl)-1-(2-fluoro-4-methylphenyl)-N-methyl-2,4,5,6-tetrahydrocyclopenta[c]pyrrol-4-amine] had an IC50 of 460 nM. The result for `CNC1CCc2c1cn(S(=O)(=O)c1cc(Cl)cc(Cl)c1)c2-c1cc(Cl)ccc1Cl` (stereo not drawn) [Example 79, 1-(2,5-dichlorophenyl)-2-((3,5-dichlorophenyl)sulfonyl)-N-methyl-2,4,5,6-tetrahydrocyclopenta[c]pyrrol-4-amine] reads 770 nM.

`CNC1CCc2c1cn(S(=O)(=O)c1ccc(Cl)c(Cl)c1Cl)c2-c1ccccc1F` (stereo not drawn) [Example 80, 1-(2-fluorophenyl)-N-methyl-2-((2,3,4-trichlorophenyl)sulfonyl)-2,4,5,6-tetrahydrocyclopenta[c]pyrrol-4-amine] showed an IC50 of 620 nM. `CNC1CCc2c1cn(S(=O)(=O)c1cc(Cl)c(Cl)cc1Cl)c2-c1ccccc1` (stereo not drawn) [Example 81, N-methyl-1-phenyl-2-((2,4,5-trichlorophenyl)sulfonyl)-2,4,5,6-tetrahydrocyclopenta[c]pyrrol-4-amine]: the IC50 is 1140 nM. In turn, `CNC1CCc2c1cn(S(=O)(=O)c1cc(Cl)c(Cl)cc1Cl)c2-c1ccc(C)cc1F` (stereo not drawn) [Example 82, 1-(2-fluoro-4-methylphenyl)-N-methyl-2-((2,4,5-trichlorophenyl)sulfonyl)-2,4,5,6-tetrahydrocyclopenta[c]pyrrol-4-amine] showed an IC50 of 660 nM. Against the preceding molecule, the IC50 is about 1.7-fold lower.

For `CNC1CCc2c1cn(S(=O)(=O)c1cc(Cl)c(Cl)cc1Cl)c2-c1cc(Cl)ccc1Cl` (stereo not drawn) [Example 83, 1-(2,5-dichlorophenyl)-N-methyl-2-((2,4,5-trichlorophenyl)sulfonyl)-2,4,5,6-tetrahydrocyclopenta[c]pyrrol-4-amine], 980 nM corresponded to half-maximal inhibition (IC50). Next, `CNC1CCc2c1cn(S(=O)(=O)c1cc(Cl)c(Cl)cc1Cl)c2-c1ccccc1F` (stereo not drawn) [Example 84, 1-(2-fluorophenyl)-N-methyl-2-((2,4,5-trichlorophenyl)sulfonyl)-2,4,5,6-tetrahydrocyclopenta[c]pyrrol-4-amine]: 390 nM.

The molecule `CNC1CCc2c1cn(S(=O)(=O)c1c(Cl)cc(Cl)cc1Cl)c2-c1ccccc1F` (stereo not drawn) [Example 85, 1-(2-fluorophenyl)-N-methyl-2-((2,4,6-trichlorophenyl)sulfonyl)-2,4,5,6-tetrahydrocyclopenta[c]pyrrol-4-amine] had an IC50 of 2190 nM. For the molecule `CNC1CCc2c1cn(S(=O)(=O)c1c(Cl)cc(C(F)(F)F)cc1Cl)c2-c1ccccc1F` (stereo not drawn) [Example 86, 2-((2,6-dichloro-4-(trifluoromethyl)phenyl)sulfonyl)-1-(2-fluorophenyl)-N-methyl-2,4,5,6-tetrahydrocyclopenta[c]pyrrol-4-amine], the IC50 turned out to be 5950 nM. This IC50 lies about 2.7-fold higher than the previous one. Consider `CNC1CCc2c1cn(S(=O)(=O)c1cccs1)c2-c1ccccc1F` (stereo not drawn) [Example 87, 1-(2-fluorophenyl)-N-methyl-2-(thiophen-2-ylsulfonyl)-2,4,5,6-tetrahydrocyclopenta[c]pyrrol-4-amine], for which it took 1440 nM to reach half-maximal inhibition (IC50). Next, `CNC1CCc2c1cn(S(=O)(=O)c1cccnc1)c2-c1ccccc1F` (stereo not drawn) [Example 88, 1-(2-fluorophenyl)-N-methyl-2-(pyridin-3-ylsulfonyl)-2,4,5,6-tetrahydrocyclopenta[c]pyrrol-4-amine]: 510 nM; `CNC1CCc2c1cn(S(=O)(=O)c1cccnc1)c2-c1ccccc1Cl` (stereo not drawn) [Example 89, 1-(2-chlorophenyl)-N-methyl-2-(pyridin-3-ylsulfonyl)-2,4,5,6-tetrahydrocyclopenta[c]pyrrol-4-amine]: 1190 nM. `CNC1CCc2c1cn(S(=O)(=O)c1cccnc1)c2-c1ccc(C)cc1F` (stereo not drawn) [Example 90, 1-(2-fluoro-4-methylphenyl)-N-methyl-2-(pyridin-3-ylsulfonyl)-2,4,5,6-tetrahydrocyclopenta[c]pyrrol-4-amine] displayed an IC50 of 520 nM. `CNC1CCc2c1cn(S(=O)(=O)c1cccnc1)c2-c1ccc(Cl)cc1F` (stereo not drawn) [Example 91, 1-(4-chloro-2-fluorophenyl)-N-methyl-2-(pyridin-3-ylsulfonyl)-2,4,5,6-tetrahydrocyclopenta[c]pyrrol-4-amine] displayed an IC50 of 690 nM. In the case of `CNC1CCc2c1cn(S(=O)(=O)c1cccnc1)c2-c1cc(Cl)ccc1Cl` (stereo not drawn) [Example 92, 1-(2,5-dichlorophenyl)-N-methyl-2-(pyridin-3-ylsulfonyl)-2,4,5,6-tetrahydrocyclopenta[c]pyrrol-4-amine], half-maximal inhibition (IC50) was put at 350 nM. For `CNC1CCc2c1cn(S(=O)(=O)c1cccnc1)c2-c1cc(Cl)cc(C)c1F` (stereo not drawn) [Example 93, 1-(5-chloro-2-fluoro-3-methylphenyl)-N-methyl-2-(pyridin-3-ylsulfonyl)-2,4,5,6-tetrahydrocyclopenta[c]pyrrol-4-amine], it took 340 nM to reach half-maximal inhibition (IC50). Next, `CNC1CCc2c1cn(S(=O)(=O)c1cccnc1)c2-c1ccsc1` (stereo not drawn) [Example 94, N-methyl-2-(pyridin-3-ylsulfonyl)-1-(thiophen-3-yl)-2,4,5,6-tetrahydrocyclopenta[c]pyrrol-4-amine]: 470 nM.

For the molecule `CNC1CCc2c1cn(S(=O)(=O)c1cncc(Cl)c1)c2-c1ccccc1F` (stereo not drawn) [Example 95, 2-((5-chloropyridin-3-yl)sulfonyl)-1-(2-fluorophenyl)-N-methyl-2,4,5,6-tetrahydrocyclopenta[c]pyrrol-4-amine], the half-inhibitory concentration (IC50) was found to be 1720 nM. Take `CNC1CCc2c1cn(S(=O)(=O)c1ccc(Oc3ccccc3)nc1)c2-c1ccccc1F` (stereo not drawn) [Example 96, 1-(2-fluorophenyl)-N-methyl-2-((6-phenoxypyridin-3-yl)sulfonyl)-2,4,5,6-tetrahydrocyclopenta[c]pyrrol-4-amine]: the IC50 was 800 nM. This IC50 is about 2.1-fold lower than that of the molecule before.

`CNC1CCc2c1cn(S(=O)(=O)c1cnc3onc(C)c3c1)c2-c1ccccc1F` (stereo not drawn) [Example 97, 1-(2-fluorophenyl)-N-methyl-2-((3-methylisoxazolo[5,4-b]pyridin-5-yl)sulfonyl-)2,4,5,6-tetrahydrocyclopenta[c]pyrrol-4-amine] returned an IC50 of 2820 nM. `CNC1CCc2c1cn(S(=O)(=O)c1ccc(OC)nc1Cl)c2-c1ccccc1F` (stereo not drawn) [Example 98, 2-((2-chloro-6-methoxypyridin-3-yl)sulfonyl)-1-(2-fluorophenyl)-N-methyl-2,4,5,6-tetrahydrocyclopenta[c]pyrrol-4-amine] came in with an IC50 of 3620 nM. The result for `CNC1CCc2c1cn(S(=O)(=O)c1ccc(C)nc1Cl)c2-c1ccccc1F` (stereo not drawn) [Example 99, 2-((2-chloro-6-methylpyridin-3-yl)sulfonyl)-1-(2-fluorophenyl)-N-methyl-2,4,5,6-tetrahydrocyclopenta[c]pyrrol-4-amine] reads 6780 nM; that for `CNC1CCc2c1cn(S(=O)(=O)c1cc(C)cnc1Cl)c2-c1ccccc1F` (stereo not drawn) [Example 100, 2-((2-chloro-5-methylpyridin-3-yl)sulfonyl)-1-(2-fluorophenyl)-N-methyl-2,4,5,6-tetrahydrocyclopenta[c]pyrrol-4-amine], 7240 nM.

`CNC1CCc2c1cn(S(=O)(=O)c1nccn1C)c2-c1ccccc1F` (stereo not drawn) [Example 101, 1-(2-fluorophenyl)-N-methyl-2-((1-methyl-1H-imidazol-2-yl)sulfonyl)-2,4,5,6-tetrahydrocyclopenta[c]pyrrol-4-amine] showed an IC50 of 18700 nM.

As for `CNC1CCc2c1cn(S(=O)(=O)c1cnc3c(c1)c(C)nn3C)c2-c1ccccc1F` (stereo not drawn) [Example 102, 2-((1,3-dimethyl-1H-pyrazolo[3,4-b]pyridin-5-yl)sulfonyl)-1-(2-fluorophenyl)-N-methyl-2,4,5,6-tetrahydrocyclopenta[c]pyrrol-4-amine], the IC50 came to 10000 nM. Regarding `CCNC1CCc2c1cn(S(=O)(=O)c1cccnc1)c2-c1ccccc1F` (stereo not drawn) [Example 103, N-ethyl-1-(2-fluorophenyl)-2-(pyridin-3-ylsulfonyl)-2,4,5,6-tetrahydrocyclopenta[c]pyrrol-4-amine], the IC50 is 1790 nM. Compared with the last molecule, the IC50 is about 5.6-fold lower. Next, `CC(C)NC1CCc2c1cn(S(=O)(=O)c1cccnc1)c2-c1ccccc1F` (stereo not drawn) [Example 104, 1-(2-fluorophenyl)-N-isopropyl-2-(pyridin-3-ylsulfonyl)-2,4,5,6-tetrahydrocyclopenta[c]pyrrol-4-amine]: 50000 nM; `CNC1CC(C)(C)c2c1cn(S(=O)(=O)c1cccnc1)c2-c1ccccc1F` (stereo not drawn) [Example 105, 1-(2-fluorophenyl)-N,6,6-trimethyl-2-(pyridin-3-ylsulfonyl)-2,4,5,6-tetrahydrocyclopenta[c]pyrrol-4-amine]: 8500 nM.

Take `CNC1CC(C)(C)c2c1cn(S(=O)(=O)c1cccc(Cl)c1)c2-c1ccccc1F` (stereo not drawn) [Example 106, 2-((3-chlorophenyl)sulfonyl)-1-(2-fluorophenyl)-N,6,6-trimethyl-2,4,5,6-tetrahydrocyclopenta[c]pyrrol-4-amine]: the IC50 came to 3300 nM. Next, `CNC1CCc2c1cn(Cc1cccc(Cl)c1)c2-c1ccccc1F` (stereo not drawn) [Example 107, 2-(3-chlorobenzyl)-1-(2-fluorophenyl)-N-methyl-2,4,5,6-tetrahydrocyclopenta[c]pyrrol-4-amine]: 2860 nM; `CNC1CCc2c1cn(Cc1cccc(F)c1)c2-c1ccccc1F` (stereo not drawn) [Example 108, 2-(3-fluorobenzyl)-1-(2-fluorophenyl)-N-methyl-2,4,5,6-tetrahydrocyclopenta[c]pyrrol-4-amine]: 5650 nM.
